# Several values for one entry are separate records, joined by “and”; a condition that tells them apart may be missing. Identical values can stand only once. Entries after “also recorded” stand apart in the source; their conditions may differ. Like-named read-outs stand apart in the source and are kept apart here.
# Legend:
# [1] = system: TKU015 nattokinase; assay: Influence of organic solvents on activity of TKU015 nattokinase; assay type: biochemical, Pseudomonas sp. TKU015; conditions: in the presence of organic solvent; for Relative activity(%) TKU015 nattokinase: 100% represents 20 FU/mL
# Description: Protease activity of the supernatant obtained from culture medium of chitinase (cultured in a liquid shaking culture medium (pH 8) including 0.5% by weight of SSP, 0.1% by weight of K2HPO4 and 0.05% by weight of MgSO4.7H2O for 3 days at 30° C.) is respectively tested using casein and N-succinyl-Ala-Ala-Pro-Phe-pNa as substrate.
# (§1) With respect to thermal stability, TKU015 nattokinase is mixed with different solvents and then respectively placed for ten days at 25° C. and 4° C.
# [2] = system: TKU015 nattokinase; assay: Influence of organic solvents on TKU015 nattokinase activity at different temperature (ten days); assay type: biochemical, Pseudomonas sp. TKU015; conditions: mixed with solvent, 100% represents 15 FU/mL
# Description: as §1
# [3] = system: TKU015 nattokinase; assay type: biochemical, Pseudomonas sp. TKU015; conditions: for Effect on TKU015 nattokinase activity: metal ion or inhibitor added
# [4] = biological target: Pseudomonas aeruginosa PseA protease (Pseudomonas aeruginosa, UniProt P14756); conditions: cited from earlier work; for Effect of solvent on PseA protease activity: in the presence of solvent
# Pseudomonas aeruginosa PseA protease, sequence (P14756 198-498): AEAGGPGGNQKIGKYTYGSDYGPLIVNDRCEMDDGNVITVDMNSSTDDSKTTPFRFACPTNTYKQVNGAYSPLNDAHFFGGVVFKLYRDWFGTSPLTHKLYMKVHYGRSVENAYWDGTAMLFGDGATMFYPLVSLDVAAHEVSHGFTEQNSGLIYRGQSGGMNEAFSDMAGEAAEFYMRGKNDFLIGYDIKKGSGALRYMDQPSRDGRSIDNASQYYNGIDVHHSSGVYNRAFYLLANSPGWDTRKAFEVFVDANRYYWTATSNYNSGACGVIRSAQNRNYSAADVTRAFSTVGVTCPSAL
# [5] = system: TKU015 nattokinase; assay: Influence of surfactants on TKU015 nattokinase activity; assay type: biochemical, Pseudomonas sp. TKU015; conditions: for Relative activity (%) Nattokinase: 100% represents 18 FU/mL
# [6] = system: chitinase; assay: Influence of metal ions and organic solvents on TKU015 chitinase activity; assay type: biochemical, Pseudomonas sp. TKU015
# Description: (§2) In order to produce chitinase and chitosanase, generally, TKU015 is cultured in a liquid shaking culture medium (pH 8) including 0.5% by weight of SSP, 0.1% by weight of K2HPO4 and 0.05% by weight of MgSO4.7H2O for 3 days at 30° C. The obtained fermented supernatant is purified with ammonia sulfate precipitation, DEAE-Sepharose chromatography, Phenyl-Sepharose chromatography, and Sephacryl S-100 chromatography in sequence, and a chitinase and a chitosanase is obtained.
# (§3) Pseudomonas sp. TKU015 is cultured in a liquid medium (100 mL/250 mL), which employ shrimp shell powder as carbon/nitrogen source, for 2-3 days at 30° C., and chitinase, chitosanase and nattokinase activity are tested in the medium.
# [7] = system: chitosanase; assay type: biochemical, Pseudomonas sp. TKU015
# Description: as §2, §3
# [8] = biological target: PST-01 protease (Pseudomonas aeruginosa, UniProt P14756); conditions: in the presence of solvent; cited from earlier work
# PST-01 protease, sequence (P14756 198-498): as above
# [9] = system: san-ai protease; conditions: in the presence of solvent; cited from earlier work
# [10] = system: nattokinase; conditions: ion added; cited from earlier work
# [11] = concentration 5 mM, 100% represents 19 FU/mL
# [12] = after placed for 10 days at 25° C.
# [13] = concentration 10 mM, 100% represents 19 FU/mL
# [14] = after placed for 10 days, temperature not given
# [15] = after placed for 10 days at 4° C.
compound,measurement,setting,value
CCCCCC [hexane],Relative activity(%) TKU015 nattokinase,[1],66%
C[S+](C)[O-] [DMSO],Relative activity(%) TKU015 nattokinase,[1],80%
same,Relative activity(%) TKU015 nattokinase,[2]; placed ten days at 4 ° C.,90%
same,Relative activity(%) TKU015 nattokinase,[2]; placed ten days at 25 ° C.,94%
[Al+3] [Al^3+],Relative activity (%) Nattokinase,[3]; [11],101%
Triton X-100,Effect on PseA protease activity,[4]; concentration 0.1% or 0.5%,doesn't change
same,Relative activity (%) Nattokinase,[5]; surfactant 0.5 % (v/v),160%
same,Relative activity (%) Nattokinase,[5]; surfactant 1 % (v/v),206%
same,Relative activity (%) Nattokinase,[5]; surfactant 2 % (v/v),344%
Tween 40,Relative activity (%) Nattokinase,[5]; surfactant 0.5 % (v/v),94%
same,Relative activity (%) Nattokinase,[5]; surfactant 1 % (v/v),70%
same,Relative activity (%) Nattokinase,[5]; surfactant 2 % (v/v),82%
butanol,Relative activity(%) TKU015 nattokinase,[1],70%
same,Relative activity(%) TKU015 nattokinase,[2]; placed ten days at 4 ° C.,125%
same,Relative activity(%) TKU015 nattokinase,[2]; placed ten days at 25 ° C.,85%
[Mn+2] [Mn^2+],Effect of metal ions on chitinase activity,[6],inhibited; also recorded: prohibited
same,Relative activity (%) Nattokinase,[3]; [11],102%
same,Effect of metal ions and PMSF on chitosanase activity,[7],inhibited
[Ba+2] [Ba^2+],Relative activity (%) Nattokinase,[3]; [11],109%
CO [methanol],Effect of organic solvent on TKU015 nattokinase activity,[1],do not affect
same,Relative activity(%) TKU015 nattokinase,[1],96%
same,Relative activity(%) TKU015 nattokinase,[2]; placed ten days at 4 ° C.,116%
same,Relative activity(%) TKU015 nattokinase,[2]; placed ten days at 25 ° C.,90%
CCO [ethanol],Relative activity(%) TKU015 nattokinase,[1],65%
same,Relative activity(%) TKU015 nattokinase,[2]; placed ten days at 4 ° C.,114%
same,Relative activity(%) TKU015 nattokinase,[2]; placed ten days at 25 ° C.,88%
"CN(C)C=O [DMF, N,N-dimethylformamide]",Relative activity(%) TKU015 nattokinase,[1],80% and 64%
same,Effect of solvent on PseA protease activity,[4],doesn't change
same,Effect of solvent on PST-01 protease activity,[8],doesn't change
same,Organic solvent resistance of chitinase,[6]; [12],don't affect activity
same,Effect of solvent on san-ai protease activity,[9],doesn't change
same,Relative activity(%) TKU015 nattokinase,[2]; placed ten days at 4 ° C.,120%
same,Relative activity(%) TKU015 nattokinase,[2]; placed ten days at 25 ° C.,98%
same,Organic solvent resistance of chitosanase,[7]; [12],don't affect activity
CC(C)CCO [isoamylalcohol],Relative activity(%) TKU015 nattokinase,[1],60%
same,Relative activity(%) TKU015 nattokinase,[2]; placed ten days at 4 ° C.,88%
same,Relative activity(%) TKU015 nattokinase,[2]; placed ten days at 25 ° C.,100%
"O=S(=O)(F)Cc1ccccc1 [PMSF, phenylmethanesulfonyl fluoride]",Relative activity (%) Nattokinase,[3]; [11],45%
same,Relative activity (%) Nattokinase,[3]; [13],0%
same,Effect on TKU015 nattokinase activity,[3],completely inhibited
same,Effect of metal ions and PMSF on chitosanase activity,[7],inhibited
[Mg+2] [Mg^2+],Effect of metal ion on nattokinase activity,[10],increased activity
same,Relative activity (%) Nattokinase,[3]; [11],104%
same,Effect on TKU015 nattokinase activity,[3],does not
[Zn+2] [Zn^2+],Relative activity (%) Nattokinase,[3]; [11],94%
[Ca+2] [Ca^2+],Effect of metal ion on nattokinase activity,[10],increased activity
same,Relative activity (%) Nattokinase,[3]; [11],108%
same,Effect on TKU015 nattokinase activity,[3],does not
[Cu+2] [Cu^2+],Effect of metal ion on nattokinase activity,[10],increased activity
same,Relative activity (%) Nattokinase,[3]; [11],95%
same,Effect on TKU015 nattokinase activity,[3],does not
same,Effect of metal ions and PMSF on chitosanase activity,[7],inhibited
CC(C)=O [acetone],Relative activity(%) TKU015 nattokinase,[1],150%
same,Activity of PST-01 protease,[8],200%
same,Effect of solvent on PST-01 protease activity,[8],doesn't change
same,Organic solvent resistance of chitinase,[6]; [14],can affect activity
same,Relative activity(%) TKU015 nattokinase,[2]; placed ten days at 4 ° C.,128%
same,Relative activity(%) TKU015 nattokinase,[2]; placed ten days at 25 ° C.,108%
same,Organic solvent resistance of chitosanase,[7]; [15],can affect activity
Cc1ccccc1 [toluene],Effect of organic solvent on TKU015 nattokinase activity,[1],do not affect
same,Relative activity(%) TKU015 nattokinase,[1],106%
same,Effect of solvent on PseA protease activity,[4],doesn't change
same,Effect of solvent on PST-01 protease activity,[8],doesn't change
same,Organic solvent resistance of chitinase,[6]; [12],don't affect activity
same,Relative activity(%) TKU015 nattokinase,[2]; placed ten days at 4 ° C.,120%
same,Relative activity(%) TKU015 nattokinase,[2]; placed ten days at 25 ° C.,100%
same,Organic solvent resistance of chitosanase,[7]; [12],don't affect activity
CC(C)O [isopropylalcohol],Relative activity(%) TKU015 nattokinase,[1],68%
same,Relative activity(%) TKU015 nattokinase,[2]; placed ten days at 4 ° C.,115%
same,Relative activity(%) TKU015 nattokinase,[2]; placed ten days at 25 ° C.,120%
CC#N [acetonitrile],Relative activity(%) TKU015 nattokinase,[1],88%
same,Organic solvent resistance of chitinase,[6]; [14],can affect activity
same,Relative activity(%) TKU015 nattokinase,[2]; placed ten days at 4 ° C.,90%
same,Relative activity(%) TKU015 nattokinase,[2]; placed ten days at 25 ° C.,80%
same,Effect of organic solvent on chitosanase activity,[7],can affect activity
O=C(O)CN(CCN(CC(=O)O)CC(=O)O)CC(=O)O [EDTA],Relative activity (%) Nattokinase,[3],117%
CCOCC [ethyl ether],Inhibition of TKU015 nattokinase activity,[1],50%
same,Relative activity(%) TKU015 nattokinase,[1],43%
same,Organic solvent resistance of chitinase,[6]; [14],can affect activity
same,Relative activity(%) TKU015 nattokinase,[2]; placed ten days at 4 ° C.,98%
same,Relative activity(%) TKU015 nattokinase,[2]; placed ten days at 25 ° C.,70%
same,Organic solvent resistance of chitosanase,[7]; [15],can affect activity
xylene,Effect of organic solvent on TKU015 nattokinase activity,[1],do not affect
same,Relative activity(%) TKU015 nattokinase,[1],96%
same,Organic solvent resistance of chitinase,[6]; [12],don't affect activity
same,Relative activity(%) TKU015 nattokinase,[2]; placed ten days at 4 ° C.,126%
same,Relative activity(%) TKU015 nattokinase,[2]; placed ten days at 25 ° C.,96%
same,Organic solvent resistance of chitosanase,[7]; [12],don't affect activity
CCOC(C)=O [ethyl acetate],Relative activity(%) TKU015 nattokinase,[1],70%
same,Relative activity(%) TKU015 nattokinase,[2]; placed ten days at 4 ° C.,118%
same,Relative activity(%) TKU015 nattokinase,[2]; placed ten days at 25 ° C.,92%
CCCCCCCCCCCCOS(=O)(=O)[O-].[Na+] [SDS],Remaining activity of PseA protease,[4]; concentration 0.1%,61%
same,TKU015 nattokinase remaining activity,"[5]; concentration 0.5, 1, or 2 mM (one value in text)",50%
same,Relative activity (%) Nattokinase,[5]; surfactant 0.5 mM,66%
same,Relative activity (%) Nattokinase,[5]; surfactant 1 mM,56%
same,Relative activity (%) Nattokinase,[5]; surfactant 2 mM,56%
[Fe+2] [Fe^2+],Effect of metal ions on chitinase activity,[6],inhibited; also recorded: prohibited
same,Relative activity (%) Nattokinase,[3]; [11],232%
same,Relative activity (%) Nattokinase,[3]; [13],156%
same,Effect on TKU015 nattokinase activity,[3],improve activity; also recorded: increase its activity
